# Data as given in ChEMBL document CHEMBL1130399 (J Med Chem, 1997).
# Columns and labels:
# Cannabinoid receptor [1] = target: T1, Cannabinoid receptor (Rattus norvegicus, UniProt Q9QZN9+P20272); test: Binding affinity towards cannabinoid receptor using [3H]CP-55940 as radioligand in rat brain membrane; type: cell membranes
# Cannabinoid receptor [2] = target: T1, Cannabinoid receptor; test: Binding affinity towards cannabinoid receptor using [3H]SR-141,716A as radioligand in rat brain membrane; type: cell membranes
# Mus musculus [3] = species on record: Mus musculus; test: Maximal degree of inhibition of electrically evoked contractions in a mouse vas deferens assay; type: functional
# Mus musculus [4] = species on record: Mus musculus; test: Inhibition of rectal temperature(RT) in mice was determined; type: functional
# Mus musculus [5] = species on record: Mus musculus; test: Inhibition of ring immobility(RI) in mice was determined; type: functional
# Mus musculus [6] = species on record: Mus musculus; test: Effective concentration that causes twitch inhibition in a mouse vas deferens assay; type: functional, organism-based
# Mus musculus [7] = species on record: Mus musculus; test: Inhibition of spontaneous activity(SA) in mice was determined; type: functional
# Mus musculus [8] = species on record: Mus musculus; test: Inhibition of tail flick response[…] in mice was determined; type: functional
# Mus musculus [9] = species on record: Mus musculus; test: Maximum possible effect for antinociception as measured by the tail flick response (TF); type: functional
# Mus musculus [10] = species on record: Mus musculus; test: Maximum possible effect for inhibition of spontaneous activity (SA); type: functional
# Mus musculus [11] = species on record: Mus musculus; test: Maximum possible effect for ring immobility (RI); type: functional
# Mus musculus [12] = species on record: Mus musculus; test: Hypothermia measured as changes in rectal temperature (RT)
SMILES,Ki (Cannabinoid receptor [1]) [nM],Ki (Cannabinoid receptor [2]) [nM],Emax (Mus musculus [3]) [%],ED50 (Mus musculus [4]) [mg/kg],ED50 (Mus musculus [5]) [mg/kg],EC50 (Mus musculus [6]) [nM],ED50 (Mus musculus [7]) [mg/kg],ED50 (Mus musculus [8]) [mg/kg],MPE (Mus musculus [9]) [%],MPE (Mus musculus [10]) [%],MPE (Mus musculus [11]) [%],rectal temperature change (Mus musculus [12]) [°C]
CCCCCCC(C)(C)/C=C\C/C=C\C/C=C\C/C=C\CCCC(=O)NCCO,1.9,153,68.3,2.9,1,59.7,1.5,1.7,91,90,74,-3.5
CCCCC/C=C\C/C=C\C/C=C\C/C=C\CCCC(=O)N[C@H](C)CO [METHANANDAMIDE],–,–,100,–,–,10.1,–,–,–,–,–,–
CCCCCCC(C)(C)/C=C\C/C=C\C/C=C\C/C=C\CCCC(=O)NCCOC,3.9,54,44.6,–,5.7,36,4,13.3,100,98,86,-1.5
CCCCC/C=C\C/C=C\C/C=C\C/C=C\CCCC(=O)NC[C@H](C)O,57,–,71.7,–,–,36.1,–,–,–,–,–,–
CCCCC/C=C\C/C=C\C/C=C\C/C=C\CCCC(=O)NCCO [ANANDAMIDE],–,–,100,–,–,52.7,–,6.2,–,–,–,–
CCCCC/C=C\C/C=C\C/C=C\C/C=C\CCCC(=O)NCCOC,44,466,34,–,–,3,–,–,–,–,–,–
CCCCC/C=C\C/C=C\C/C=C\C/C=C\CCCC(=O)NCCC,2.6,238,51.2,–,–,10.9,–,–,–,–,–,–
CCCCCCC(C)(C)/C=C\C/C=C\C/C=C\C/C=C\CCCC(=O)N[C@@H](C)CO,5,161,67.2,5,2.5,28.3,2.6,4.8,100,90,80,-2
CCCCCCC(C)(C)/C=C\C/C=C\C/C=C\C/C=C\CCCC(=O)N[C@H](C)CO,1.7,220,65.2,6,2.4,60.6,1.1,1,100,95,85,-2.8
CCCCCCC(C)(C)/C=C\C/C=C\C/C=C\C/C=C\CCCC(=O)NCCC,1.5,31,65.3,–,–,11.7,1.2,6.3,–,–,81,-1.5
